Test results taken from patent US5292901A, “Benzodioxole derivatives” (Eisai Co., Ltd., priority 1987, dated 1994).

What was measured:
Assay type in all cases: in vivo, male Fischer (F344) rats
[1] = system: liver injury induced by D-galactosamine; experiment: Experimental Example 1d: effect on liver injury induced by D-galactosamine in rats (group I-d); conditions: Rattus norvegicus, Table 1d, D-galactosamine 300 mg/kg s.c., compound 50 mg/kg oral in distilled water or 0.5% methylcellulose, 48 h
Procedure: (§1) 300 mg/kg of D-galactosamine was administered to male Fischer (F344) rats weighing around 180 g by subcutaneous injection to induce liver injury. Each compound was dissolved in distilled water was given by oral administration in a dose of 50 mg/kg one hour after the injection of D-galactosamine.
(§2) The D-galactosamine was used in the form of a solution having a concentration of 200 mg/ml, obtained by dissolving D-galactosamine in a physiological saline solution to obtain a dilute D-galactosamine solution and adjusting the pH of the dilute solution to 7.0 with 10N aqueous potassium hydroxide.
(§3) Blood was collected from the rat's tail vein 48 h after the injection of D-galactosamine. The blood coagulation time was determined by the hepaplastin test (HPT) and GPT activity in the blood plasma was determined by an enzymatic method.

[2] = system: liver injury induced by D-galactosamine; experiment: Experimental Example 1e: effect on liver injury induced by D-galactosamine in rats (group I-e); conditions: Rattus norvegicus, po, 48 h, Table 1e, D-galactosamine 400 mg/kg, compound 100 mg/kg in 0.5% aqueous methylcellulose
Procedure: The D-galactosamine was used in the form of a solution having a concentration of 200 mg/ml, obtained by dissolving D-galactosamine in a physiological saline solution to obtain a dilute D-galactosamine solution and adjusting the pH of the dilute solution to 7.0 with 10N aqueous potassium hydroxide. Blood was collected from the rat's tail vein 48 h after the injection of D-galactosamine. The blood coagulation time was determined by the […]) and GPT activity in the blood plasma was determined by an enzymatic method.

[3] = system: liver injury induced by D-galactosamine; experiment: Experimental Example 1b: effect on liver injury induced by D-galactosamine in rats (group I-b); conditions: Rattus norvegicus, po, 48 h, Table 1b, D-galactosamine 400 mg/kg; for inhibition in vivo at 100 mg/kg: compound 100 mg/kg in 0.5% methylcellulose; for inhibition in vivo at 50 mg/kg: values marked *: administration of 50 mg/kg
[4] = system: liver injury induced by D-galactosamine; experiment: Experimental Example 2b: inhibition of liver injury in rats (group I-b), method given as that of Experimental Example 1b; conditions: Rattus norvegicus, 48 h; Table 2b; compound 100 mg/kg oral in 0.5% methylcellulose; read-out: Inhibition ratio (%) GPT
Procedure: The test was conducted in the same manner as shown in Experimental Example 1b except that the test compound was orally administered to the rats in a dose of 100 mg/kg in 0.5% methylcellulose solution.

[5] = system: liver injury induced by D-galactosamine; experiment: Experimental Example 1f: effect on liver injury induced by D-galactosamine in rats (group I-f); conditions: Rattus norvegicus, po, 48 h, Table 1f, D-galactosamine 400 mg/kg, compound 100 mg/kg in 0.5% methylcellulose
Procedure: as §1, §2, §3
The test was conducted in the same way as shown in Experimental Example 1a except that 400 mg/kg of D-galactosamine was administered in its physiological saline solution and each test compound was used in an amount of 100 mg/kg in 0.5% methylcellulose liquid.

[6] = read-out: Inhibition ratio (%) GPT
[7] = read-out: Inhibition ratio (%) HPT

With `Cc1cc2c(cc1CCSCC(=O)O)OCO2` [Compound 16] the inhibition in vivo at 50 mg/kg [1, 6] was 25% and the inhibition in vivo at 50 mg/kg [1, 7] was 41%.

`OCCSSCCc1ccc2c(c1)OCO2` [Compound 1, 2-[{2-(1,3-Benzodioxol-5-yl)ethyl}dithio]ethanol] gave an inhibition in vivo at 100 mg/kg [2, 6] of 92% and an inhibition in vivo at 100 mg/kg [2, 7] of 62%.

With `CCOC(=O)CSCCc1ccc2c(c1)OCO2` [Compound 25] the inhibition in vivo at 100 mg/kg [3, 6] was 34%, the inhibition in vivo at 100 mg/kg [3, 7] was 61% and the inhibition in vivo at 100 mg/kg [4] was 21%.

With `c1ccc(CCSSCCCc2ccc3c(c2)OCO3)cc1` [Compound 6, 3-(1,3-Benzodioxol-5-yl)propyl phenethyl disulfide] the inhibition in vivo at 100 mg/kg [2, 6] was 55% and the inhibition in vivo at 100 mg/kg [2, 7] was 53%.

In the case of `N#CCS(=O)(=O)CCc1ccc2c(c1)OCO2` [Compound 37], the inhibition in vivo at 50 mg/kg [1, 6] was 52% and the inhibition in vivo at 50 mg/kg [1, 7] was 44%.

`O=C(OCCSSCCCc1ccc2c(c1)OCO2)c1cccnc1` [compound 7] gave an inhibition in vivo at 100 mg/kg [2, 6] of 72% and an inhibition in vivo at 100 mg/kg [2, 7] of 43%.

Work on `N#CCSCCc1ccc2c(c1)OCO2` [Example 2, [{2-(1,3-Benzodioxol-5-yl)ethyl}thio]acetonitrile] yielded an inhibition in vivo at 50 mg/kg [1, 6] of 88% and an inhibition in vivo at 50 mg/kg [1, 7] of 100%.

In the case of `Cc1cc2c(cc1C(C)SCC(=O)O)OCO2` (centres unmarked) [Compound 3], the inhibition in vivo at 100 mg/kg [5, 6] was 100% and the inhibition in vivo at 100 mg/kg [5, 7] was 100%.

For `N#CC[S+]([O-])CCc1ccc2c(c1)OCO2` (centres unmarked) [Compound 33], the inhibition in vivo at 50 mg/kg [1, 6] was 82% and the inhibition in vivo at 50 mg/kg [1, 7] was 78%.

For `CC(Cc1ccc2c(c1)OCO2)SSC(C)Cc1ccc2c(c1)OCO2` (centres unmarked) [compound 11], the inhibition in vivo at 100 mg/kg [2, 6] was 76% and the inhibition in vivo at 100 mg/kg [2, 7] was 68%.

Molecule `SCCc1ccc2c(c1)OCO2` [Compound 1, 2-(1,3-Benzodioxol-5-yl)ethanethiol] has an inhibition in vivo at 100 mg/kg [3, 6] of 91% and an inhibition in vivo at 100 mg/kg [3, 7] of 96%.

In the case of `Cc1cc2c(cc1C(C)SCC(N)=O)OCO2` (centres unmarked) [Compound 13], the inhibition in vivo at 100 mg/kg [5, 6] was 50% and the inhibition in vivo at 100 mg/kg [5, 7] was 17%.

With `NC(=O)CSCCc1ccc2c(c1)OCO2` [Compound 16] the inhibition in vivo at 100 mg/kg [3, 6] was 86%, the inhibition in vivo at 100 mg/kg [3, 7] was 94% and the inhibition in vivo at 100 mg/kg [4] was 61%.

Work on `O=C(O)CSCCc1ccc2c(c1)OCO2` [Compound 8] yielded an inhibition in vivo at 100 mg/kg [4] of 53%.

Work on `O=C(O)CCCCCSCCc1ccc2c(c1)OCO2` [Compound 12] yielded an inhibition in vivo at 50 mg/kg [3, 6] of 69% and an inhibition in vivo at 50 mg/kg [3, 7] of 75%.

`COCCSCCc1ccc2c(c1)OCO2` [Compound 6] showed an inhibition in vivo at 100 mg/kg [3, 6] of 79% and an inhibition in vivo at 100 mg/kg [3, 7] of 93%.

With `CCC(Cc1ccc2c(c1)OCO2)SCC(=O)O` (centres unmarked) [Example 26, Sodium [[1-{(1,3-benzodioxol-5-yl)methyl}propyl]thio]acetate] the inhibition in vivo at 50 mg/kg [1, 6] was 53% and the inhibition in vivo at 50 mg/kg [1, 7] was 48%.

Work on `O=C(O)CCCCSCCc1ccc2c(c1)OCO2` [Compound 11] yielded an inhibition in vivo at 100 mg/kg [3, 6] of 96%, an inhibition in vivo at 100 mg/kg [3, 7] of 98% and an inhibition in vivo at 100 mg/kg [4] of 90%.

`CCS(=O)(=O)CCc1ccc2c(c1)OCO2` [Compound 35] gave an inhibition in vivo at 50 mg/kg [1, 6] of 76% and an inhibition in vivo at 50 mg/kg [1, 7] of 60%.

In the case of `O=C(O)CSCCc1ccc2c(c1)OCO2` [Compound 8, Sodium [{2-(1,3-benzodioxol-5-yl)ethyl}thio]acetate], the inhibition in vivo at 100 mg/kg [3, 6] was 97% and the inhibition in vivo at 100 mg/kg [3, 7] was 97%.

Molecule `CC(Cc1ccc2c(c1)OCO2)SSCCO` (centres unmarked) [Compound 12, 2-[{2-(1,3-Benzodioxol-5-yl)-1-methylethyl}dithio]ethanol] has an inhibition in vivo at 100 mg/kg [2, 6] of 63% and an inhibition in vivo at 100 mg/kg [2, 7] of 45%.

`CC(C)(SCCc1ccc2c(c1)OCO2)C(=O)O` [Example 4, Sodium 2-methyl-2-[{2-(1,3-benzodioxol-5-yl)ethyl}thio]propionate] gave an inhibition in vivo at 50 mg/kg [1, 6] of 84% and an inhibition in vivo at 50 mg/kg [1, 7] of 91%.

With `CC(=O)CSCCc1ccc2c(c1)OCO2` [Example 1, [{2-(1,3-Benzodioxol-5-yl)ethyl}thio]propan-2-one] the inhibition in vivo at 50 mg/kg [1, 6] was 89% and the inhibition in vivo at 50 mg/kg [1, 7] was 100%.

`[O-][S+](CCO)CCc1ccc2c(c1)OCO2` (centres unmarked) [Compound 27] was tested, and the inhibition in vivo at 100 mg/kg [3, 6] was 54% and the inhibition in vivo at 100 mg/kg [3, 7] was 65%.

For `O=C(OCCSSCc1ccc2c(c1)OCO2)c1cccnc1` [Compound 10, 2-[{(1,3-Benzodioxol-5-yl)methyl}dithio]ethyl nicotinate], the inhibition in vivo at 100 mg/kg [2, 6] was 72% and the inhibition in vivo at 100 mg/kg [2, 7] was 43%.

For `N#CC(SCCc1ccc2c(c1)OCO2)C(=O)O` (centres unmarked) [Compound 28], the inhibition in vivo at 50 mg/kg [1, 6] was 44% and the inhibition in vivo at 50 mg/kg [1, 7] was 45%.

`CC(C)(SCC(N)=O)c1ccc2c(c1)OCO2` [Compound 11] gave an inhibition in vivo at 100 mg/kg [5, 6] of 97% and an inhibition in vivo at 100 mg/kg [5, 7] of 68%.

`CC(C)(SCC(=O)O)c1ccc2c(c1)OCO2` [Compound 2] was tested, and the inhibition in vivo at 100 mg/kg [5, 6] was 76% and the inhibition in vivo at 100 mg/kg [5, 7] was 83%.

Work on `CC(=O)CS(=O)(=O)CCc1ccc2c(c1)OCO2` [Compound 34] yielded an inhibition in vivo at 50 mg/kg [1, 6] of 37% and an inhibition in vivo at 50 mg/kg [1, 7] of 17%.

`CC1Oc2ccc(CCSCC(=O)O)cc2O1` (centres unmarked) [Example 12, Sodium [{2-(2-methyl-1,3-benzodioxol-5-yl)ethyl}-thio]acetate] showed an inhibition in vivo at 50 mg/kg [1, 6] of 85% and an inhibition in vivo at 50 mg/kg [1, 7] of 85%.

`CN(C)C(=O)CCSCCc1ccc2c(c1)OCO2` [Compound 19] showed an inhibition in vivo at 100 mg/kg [3, 6] of 69% and an inhibition in vivo at 100 mg/kg [3, 7] of 90%.

Molecule `c1ncc(CSCCc2ccc3c(c2)OCO3)[nH]1` [Compound 8] has an inhibition in vivo at 50 mg/kg [1, 6] of 28% and an inhibition in vivo at 50 mg/kg [1, 7] of 61%.

`c1cc2c(cc1CCSSCCc1ccc3c(c1)OCO3)OCO2` [Compound 2, Bis{2-(1,3-benzodioxol-5-yl)ethyl}disulfide] was tested, and the inhibition in vivo at 100 mg/kg [2, 6] was 64% and the inhibition in vivo at 100 mg/kg [2, 7] was 57%.

In the case of `CCCC(SCC(=O)O)c1ccc2c(c1)OCO2` (centres unmarked) [Compound 1], the inhibition in vivo at 100 mg/kg [5, 6] was 84% and the inhibition in vivo at 100 mg/kg [5, 7] was 100%.

`c1cc(CSCCc2ccc3c(c2)OCO3)ccn1` [Example 6, 2-(1,3-Benzodioxol-5-yl)ethyl (pyridin-4-yl)methyl sulfide] was tested, and the inhibition in vivo at 50 mg/kg [1, 6] was 64% and the inhibition in vivo at 50 mg/kg [1, 7] was 76%.

`OCCSCCc1ccc2c(c1)OCO2` [Compound 3] was tested, and the inhibition in vivo at 100 mg/kg [3, 6] was 97% and the inhibition in vivo at 100 mg/kg [3, 7] was 94%.

In the case of `Cc1cc2c(cc1CSCC(=O)O)OCO2` [Compound 6], the inhibition in vivo at 100 mg/kg [5, 6] was 100% and the inhibition in vivo at 100 mg/kg [5, 7] was 100%.

`O=C(O)CNC(=O)CSCCc1ccc2c(c1)OCO2` [Compound 23] was tested, and the inhibition in vivo at 100 mg/kg [3, 6] was 77% and the inhibition in vivo at 100 mg/kg [3, 7] was 92%.

Molecule `CCCC(SCC(=O)NCC(=O)O)c1ccc2c(c1)OCO2` (centres unmarked) [Compound 17] has an inhibition in vivo at 100 mg/kg [5, 6] of 91% and an inhibition in vivo at 100 mg/kg [5, 7] of 70%.

Work on `CCC(SCC(=O)O)c1cc2c(cc1C)OCO2` (centres unmarked) [Compound 4] yielded an inhibition in vivo at 100 mg/kg [5, 6] of 89% and an inhibition in vivo at 100 mg/kg [5, 7] of 100%.

`CC(C)S(=O)(=O)CCc1ccc2c(c1)OCO2` [Compound 36] was tested, and the inhibition in vivo at 50 mg/kg [1, 6] was 59% and the inhibition in vivo at 50 mg/kg [1, 7] was 68%.

With `CCCCCCCCCSSCCCc1ccc2c(c1)OCO2` [Compound 9, 3-(1,3-Benzodioxol-5-yl)propyl nonyl disulfide] the inhibition in vivo at 100 mg/kg [2, 6] was 53% and the inhibition in vivo at 100 mg/kg [2, 7] was 49%.

`c1ccc(CSCCc2ccc3c(c2)OCO3)nc1` [Example 7, 2-(1,3-Benzodioxol-5-yl)ethyl (pyridin-2-yl)methyl sulfide] gave an inhibition in vivo at 50 mg/kg [1, 6] of 37% and an inhibition in vivo at 50 mg/kg [1, 7] of 58%.

With `CC(C)c1cc2c(cc1CCSCC(=O)O)OCO2` [Compound 9] the inhibition in vivo at 100 mg/kg [5, 6] was 88% and the inhibition in vivo at 100 mg/kg [5, 7] was 67%.

With `O=C(OCCSSCCc1ccc2c(c1)OCO2)c1cccnc1` [Compound 3, 2-[{2-(1,3-Benzodioxol-5-yl)ethyl}dithio]ethyl nicotinate] the inhibition in vivo at 100 mg/kg [2, 6] was 92% and the inhibition in vivo at 100 mg/kg [2, 7] was 62%.
